The values below come from a melting point compilation (Tetko et al.; mined from patent text by program, amines drawn as free bases though some values may be those of a salt).

Molecules are shown by their SMILES.

Consider `COCc1ccc(Oc2cc(OC(C)C)c3[nH]c(C4=NCC(CC(=O)NC5CC5)S4)cc3c2)cn1` (centres undefined), for which the melting point fell in the range of 100 to 101 °C.

`Cc1oc(-c2ccccc2)nc1COc1ccc(CSc2nc(CCC(=O)O)n[nH]2)cc1` showed a melting point of 170 to 171 °C.

Compound `COc1cc(C=O)ccc1OCc1nc(N2CCCCC2)sc1C` registered a melting point of 80 to 81 °C.

Compound `CCC(C)(C)OC(=O)NC(C)(Cc1c[nH]c2ccccc12)C(=O)NCCc1ccc(Cl)cc1` (centres undefined) showed a melting point of 150 to 153 °C.

The compound `CCn1nc(-c2ccccc2)c(C(C)=O)c(Nc2cccc3cn[nH]c23)c1=O` displayed a melting point of 263 to 264 °C.

`C[C@H](NS(=O)(=O)c1ccc(-c2c(C#N)c3cc(C(F)(F)F)cnc3n2-c2ccccc2)nc1)C(F)(F)F`: the melting point was 186 to 188 °C.

Turning to `COc1cc(C(=O)N2CCN(C(=O)C3=Cc4cc(OCc5ccccc5)c(OCc5ccccc5)cc4CCC3)CC2)cc(OC)c1OC`, the melting point was in the range of 130 to 132 °C.

For `Nc1ccccc1C(=O)NN=Cc1c(O)ccc2ccccc12`, the melting point was in the range of 188 to 191 °C.

The compound `Cc1cccc(Cl)c1OC1CN(C(c2ccccc2)c2ccccc2)C1` gave a melting point of 92 to 93 °C.

`CN(C)c1nc(O)ns1` had a melting point of 142 °C.

Compound `OCc1c(Cl)cc(Cl)cc1C(O)(Cn1ccnc1)c1ccc(Cl)cc1Cl` (centres undefined) gave a melting point of 208 to 211 °C.

Take `CC12CCC3c4ccc(O)cc4CCC3C1CCC2=CF` (centres undefined): the melting point is 125 to 129 °C.

`CCCCc1c(C)c2ccc(OCCCCl)cc2[nH]c1=O` came in with a melting point of 203 °C.

In the case of `COc1cc2c(cc1C(=O)Cl)nnn2C(C)=O`, the melting point is 170 °C.

As for `N#Cc1ccc2c(c1)CS(=O)(=O)NN=C2c1ccc(F)cc1`, the melting point was in the range of 218 to 219 °C.

Regarding `O=C(Nc1noc2ccccc12)N1CCN(c2nc(-c3ccccc3)ns2)CC1`, the melting point was in the range of 234 to 235 °C.

Compound `Nc1c(Cl)cc(C(O)CNCCCCCCOCCCCCCc2cnccn2)cc1Cl` (centres undefined) had a melting point of 60 to 63 °C.

For the compound `COc1cc(F)c(C(=O)CCCCCBr)cc1OC`, the melting point fell in the range of 81 to 83 °C.

For `COC(=O)N1Cc2cc(OC)ccc2C(Cc2c(Cl)cncc2Cl)=N1`, the melting point fell in the range of 184 to 186 °C.

`CC(C)(C)OC(=O)CCS(=O)(=O)c1ccc(Br)cc1` came in with a melting point of 105 °C.

The compound `CC(=O)N1CCc2c(sc(C)c2CCN2CCC(c3nn(-c4ccc(F)cc4)c4cc(F)ccc34)CC2)C1` had a melting point of 193 to 196 °C.

`O=C(Nc1nc(CN2CCC(c3c[nH]c4ccccc34)CC2)cs1)C1CC1`: the melting point fell in the range of 120 to 132 °C.

With `COC(=O)Nc1ccc(OCc2nc3ccccc3s2)c(Cl)c1`, the melting point lay in the range of 133 to 135 °C.

The compound `O=C(O)c1cc(F)c(F)c(F)n1` registered a melting point of 81 to 82 °C.

For the compound `CC1(C)CCC(C)(C)c2c(OCc3ccc(F)cc3)cc(C(O)c3ccc4cc(C(=O)O)ccc4c3)cc21` (centres undefined), the melting point was 212 °C.

As to `CC(=O)NC(C)(C)c1ccc(CN2CCN(c3ncccn3)CC2)cc1`, the melting point lay in the range of 137 to 138 °C.

As for `COc1ccc(C(C)(C)C)cc1C=Cc1ccc(C=O)cc1`, the melting point was in the range of 82 to 83 °C.

Turning to `Cc1nc2nccc(C(C)Oc3ccc(Cl)cc3)n2n1` (centres undefined), the melting point came to 138 °C.

Take `CCC(=O)C(O)=NNc1cc([N+](=O)[O-])ccc1Br`: the melting point was in the range of 263 to 265 °C.

Compound `CC(C)CCOc1ccc(S(=O)(=O)C2(C(=O)O)CCN(Cc3ccccc3)CC2)cc1` had a melting point of 106 °C.

The compound `Nc1ncccc1-c1nc2cc(Br)cnc2n1-c1ccc(CNC(=O)c2ccccc2)cc1` yielded a melting point of 195 to 197 °C.

As for `CN(c1ccc(Br)cc1)S(=O)(=O)c1cccc(C(=O)Nc2ccc(Cl)cc2F)c1`, the melting point was 117 to 118 °C.

For the compound `CC(C)(C)OC(=O)NCCn1cnc2c(N)nc3ccccc3c21`, the melting point turned out to be 215 °C.

With `CCC(=O)c1ccc(SC)cn1`, the melting point was in the range of 52 to 53 °C.

What is called melting point is the temperature of the solid-liquid transition.
